Laboratory results taken from patent publication US20240108720A1, “SOLE USE OF POLYMERSOME ASSOCIATED ADJUVANT FOR STIMULATING AN IMMUNE RESPONSE” (priority 2021, published 2024).

Tests used:
[1] = test system: classical dendritic cells (cDCs); test: Activation of classical dendritic cells in inguinal lymph nodes after SC injection; format: in vivo, C57BL/6 mice; details: 5 μg SC, inguinal lymph nodes two days after
Description: Class B CpG binds endosomal Toll-like receptor 9 (TLR9) to induce several immunological effects, including activation of dendritic cells (DCs), production of pro-inflammatory cytokines and B cell differentiation and antibody secretion. These attributes make class B CpG valuable as a vaccine adjuvant. In this study, C57BL/6 mice were subcutaneously (SC) injected with 5 μg free murine CpG 1826 or ACM-CpG 1826 to compare their relative abilities to activate classical dendritic cells (cDCs). Two days after, inguinal lymph nodes (which drain the site of injection) were harvested to assess DC activation. […] Moreover, ACM polymersomes alone were non-immunogenic and thus enhanced DC activation was due to efficient delivery of CpG to endosomal TLR9.

C57BL/6 splenocytes = test: Cytokine production by splenocytes in vitro (adjuvant activity); format: cell-based, mice; details: culture supernatant, approximately 20 h, 0.125-0.5 μM
Description: It is known that CpG can induce cytokine production by BALB/c splenocytes in vitro. In this experiment adjuvant effect of ACM polymersomes with CpG were studied. The experimental procedure included: • 1. Spleens harvested from three C57BL/6 mice • 2. 3 million splenocytes added to each well of 96-well plate in complete RPMI. • 3. The following treatment groups were used: untreated, free CpG, ACM-CpG and empty ACM, which were incubated approximately 20 h at 37° C. 5% C02. • 4. Collection of culture supernatants and measurement of IL-6 and IL-12p70 which are indicators of adjuvant effect. • 5. The following 96-well plate format was used for measurements (ms) carried out in triplicates (Table 1)

human PBMCs = test: Cytokine profile in human PBMCs ex vivo (ELISA); format: cell-based
Description: In the present ex vivo experiment, peripheral blood mononuclear cells (PBMCs) from six healthy donors were stimulated with free CpG-A, free CpG-B (7909) or ACM-CpG-B at increasing concentration (0.62, 1.25, 2.5 and 5 μM). Levels of IL-6 and IFNα secreted into culture supernatant was measured by ELISA. […] The ability to induce both cytokines was advantageous as they stimulate DCs to mature and B cells to proliferate and produce antibody, respectively.

C57bl/6 mice = test: Immunization with OVA conjugated or encapsulated ACMs, sera tittering by ELISA (Example 13); format: in vivo; details: 4 μg of OVA per injection, sera 21 days after the boost
Description: C57bl/6 mice were immunized with different OVA formulations: PBS (negative control), free OVA with or without Sigma Adjuvant System (SAS), OVA encapsulated ACMs or OVA conjugated ACMs. Balb/c mice were immunized with different HA formulations: PBS (negative control), free HA, HA encapsulated ACMs or HA conjugated ACMs. […] All immunizations were performed with a same final amount of antigen within each trial: 5-10 μg OVA/injection/mouse or 100-200 ng HA/injection/mouse. Final bleeds were collected 42 days after prime. ELISA was then performed to assess titers: OVA or HA were coated onto MaxiSorp plates (1 μg/ml in carbonate buffer) overnight. Plates were blocked using 3% BSA in PBS for 1 h at RT. All sera were diluted at 1:100 and incubated on plates for 1 h at RT. After 3 washes with PBS+0.05% Tween 20, secondary antibody anti-mouse IgG HRP coupled was incubated at 1:10,000 dilution for 1 h, RT (room temperature). After 3 washes with PBS/Tween 20 buffer, TMB substrate was added and reaction was stopped using 1M HCl. Optical densities were quantified at 450 nm.
C57bl/6 mice were immunized with the following formulations: a negative control (PBS), free OVA with or without Sigma Adjuvant System (SAS), BD21 encapsulated OVA and BD21 conjugated OVA. […] 21 days after the boost, sera were collected for tittering by ELISA.

[2] = PBMCs from six healthy donors, 0.62, 1.25, 2.5 and 5 μM

CpG ODN1826 [free CpG] was tested, and the “CD86 and CD80 activation marker expression on cDC2” value [1] was “significant increase in CD86 and CD80 expression on cDC2”, the IL-6 production (C57BL/6 splenocytes) was “only detected in free CpG- or ACM-CpG-treated splenocytes” and the “IL-12 (IL-12p70) production” value (C57BL/6 splenocytes) was “not detected even in neat culture supernatant”.

CpG 7909 [CpG-B] was tested, and the “CpG concentration at which IL-6 levels saturate” value (human PBMCs; PBMCs from six healthy donors) was “around 1.25 μM”, the IFNα production (human PBMCs; [2]) was “little to none was detected” and the “IL-6 secreted into culture supernatant” value (human PBMCs; [2]) was “low to moderate quantities”.

B1: Ovalbumin (OVA) (protein, listed as Gallus gallus)
chain: MGSIGAASMEFCFDVFKELKVHHANENIFYCPIAIMSALAMVYLGAKDSTRTQINKVVRFDKLPGFGDSIEAQCGTSVNVHSSLRDILNQITKPNDVYSFSLASRLYAEERYPILPEYLQCVKELYRGGLEPINFQTAADQARELINSWVESQTNGIIRNVLQPSSVDSQTAMVLVNAIVFKGLWEKAFKDEDTQAMPFRVTEQESKPVQMMYQIGLFRVASMASEKMKILELPFASGTMSMLVLLPDEVSGLEQLESIINFEKLTEWTSSNVMEERKIKVYLPRMKMEEKYNLTSVLMAMGITDVFSSSANLSGISSAESLKISQAVHAAHAEINEAGREVVGSAEAGVDAASVSEEFRADHPFLFCIKHIATNAVLFFGRCVSP
In the case of B1, the “IgG response / titer against OVA (ELISA)” value (C57bl/6 mice) is reported as “not able to elicit an IgG response”.
